Common to all, as to format: in vivo
One test deals with Musca domestics. The test is described as follows: Experimental Example 3: filter paper test with sucrose bait, death rate of Musca domestics. Conditions: read-out: death rate of the pest. As to the method:
Preparations of the present compounds (1), (2), (3), (4), (5), (6), (8), (9), (10), (11), (12), (13), (14), (15), (16), (17), (18), (19), (21), (22), (23), (24), (25), (26), (27), (31), (34), (35), (36), (37), (38), (39), (40), (42), (47), (50), (52), (54), (66), (67) and (68) obtained according to Formulation Example 5 were diluted with water so that the active ingredient concentration was 500 ppm to prepare experimental pesticidal solutions.
A filter paper having a diameter of 5.5 cm was spread on the bottom of a polyethylene cup having a diameter of 5.5 cm and 0.7 ml of the experimental pesticidal solution was added dropwise onto the filter paper. As a bait 30 mg of sucrose was uniformly placed on the filter paper. Into the polyethylene cup, 10 female Musca domestics imagoes were released and the cup was sealed with a lid. After 24 hours, the number of surviving Musca domestics was examined and the death rate of the pest was calculated.

The next test deals with Culex pipiens pallens. The test is described as follows: Experimental Example 5: larvae in treated water, death rate of Culex pipiens pallens. Conditions: 24 h, read-out: death rate of the pest. As for the experimental part: Preparations of the present compounds (1), (2), (4), (5), (6), (8), (9), (11), (12), (13), (14), (15), (16), (17), (18), (19), (21), (22), (23), (24), (25), (26), (27), (31), (33), (34), (35), (36), (37), (38), (39), (40), (42), (43), (47), (48), (50), (52), (53), (54), (62), (64), (65), (66), (67), (68) and (70) obtained according to Formulation Example 5 were diluted with water so that the active ingredient concentration was 500 ppm to prepare experimental pesticidal solutions.
0.7 ml of the experimental pesticidal solution was added to 100 mL of ion-exchanged water (active ingredient concentration: 3.5 ppm). Into the solution, 20 last-instar larvae of Culex pipiens pallens were released. After one day, the surviving number was examined and the death rate of the pest was calculated.

Another test has as its system Blattalla germanica. As to the kind of experiment: Experimental Example 4: filter paper test with sucrose bait, death rate of Blattalla germanica. The settings on record: 144 h; 500 ppm active ingredient, 0.7 ml on filter paper; two male imagoes; after 6 days. As to the method:
Preparations of the present compounds (2), (4), (5), (6), (8), (9), (11), (12), (13), (15), (17), (18), (19), (21), (24), (25), (26), (27), (35), (36), (37), (38), (40), (41), (42), (47), (50), (52), (54), (62), (64), (65), (66) and (68) obtained according to Formulation Example 5 were diluted with water so that the active ingredient concentration was 500 ppm to prepare experimental pesticidal solutions.
A filter paper having a diameter of 5.5 cm was spread on the bottom of a polyethylene cup having a diameter of 5.5 cm and 0.7 ml of the experimental pesticidal solution was added dropwise onto the filter paper. As a bait 30 mg of sucrose was uniformly placed on the filter paper. Into the polyethylene cup, two male Blattalla gexmanica images were released and the cup was sealed with a lid. After 6 days, the number of surviving Blattalla germanica was examined and the death rate of the pest was calculated.

[1] abbreviates: 500 ppm active ingredient, 0.7 ml on filter paper, 10 female imagoes, after 24 hours.
Where [2] appears, read: active ingredient concentration 3.5 ppm in water, 20 last-instar larvae, after one day.

Read-outs that look alike come from different tables or passages of the source. A value given as a limit tells only on which side of the number the result lay.

Regarding `N#CC(C#N)(CCC(F)(F)F)Cc1csc(Cl)n1` [present compound (13)], the figures for the pest or weed control at 500 ppm in the test with Musca domestics (setting [1]) and in the test with Blattalla germanica were no less than 90% and 100%, respectively. The pest or weed control at 3.5 ppm in the test on Culex pipiens pallens (setting [2]) is no less than 95%.
As for `CC(F)c1cc(CC(C#N)(C#N)CCC(F)(F)F)no1` (centres unmarked) [present compound (50)], the pest or weed control at 500 ppm in the test with Musca domestics (setting [1]) is no less than 90%; in the test on Blattalla germanica, 100%. In addition, in the test on Culex pipiens pallens (setting [2]), the pest or weed control at 3.5 ppm is no less than 95%.
Turning to `CC(C)(C)c1cc(CC(C#N)(C#N)CCC(F)(F)F)n(CC(F)(F)F)n1` [present compound (3)], the pest or weed control at 500 ppm with Musca domestics (setting [1]) is no less than 90%.
In the case of `CC(C)(C)c1cc(CC(C#N)(C#N)CCC(F)(F)F)on1` [present compound (4)], the pest or weed control at 500 ppm in the test on Musca domestics (setting [1]) was no less than 90%; in the test with Blattalla germanica, 100%. For the same molecule, the pest or weed control at 3.5 ppm with Culex pipiens pallens (setting [2]) was no less than 95%.
In the case of `CC(C)(O)c1cc(CC(C#N)(C#N)CCC(F)(F)F)no1` [present compound (53)], in the test with Culex pipiens pallens (setting [2]), the pest or weed control at 3.5 ppm is no less than 95%.
As to `CCc1ncc(CC(C#N)(C#N)CCC(F)(F)F)s1` [present compound (16)], the pest or weed control at 500 ppm in the test with Musca domestics (setting [1]) is no less than 90%. Further, in the test on Culex pipiens pallens (setting [2]), the pest or weed control at 3.5 ppm was no less than 95%.
Consider `CC(F)(F)c1cc(CC(C#N)(C#N)CCC(F)(F)F)no1` [present compound (52)], for which the pest or weed control at 500 ppm was no less than 90% in the test with Musca domestics (setting [1]) and 100% in the test on Blattalla germanica. Besides, the pest or weed control at 3.5 ppm with Culex pipiens pallens (setting [2]) was no less than 95%.
For `CC(C)(C)c1ncc(CC(C#N)(C#N)CCC(F)(F)F)s1` [present compound (17)] the same measures were no less than 90%, 100% and no less than 95%.
For `CC(c1cc(C(F)(F)F)on1)C(C#N)(C#N)CCC(F)(F)F` (centres unmarked) [present compound (36)] the same measures were no less than 90%, 100% and no less than 95%.
`Cc1nc(CC(C#N)(C#N)CCC(F)(F)F)cs1` [present compound (11)]: the pest or weed control at 500 ppm in the test on Musca domestics (setting [1]) was no less than 90%; with Blattalla germanica, 100%. The pest or weed control at 3.5 ppm in the test on Culex pipiens pallens (setting [2]) is no less than 95%.
`CC(C)(C)c1cc(CC(C#N)(C#N)CCC(F)(F)F)sn1` [present compound (5)]: the values for the pest or weed control at 500 ppm with Musca domestics (setting [1]) and in the test with Blattalla germanica were no less than 90% and 100%, respectively. In addition, in the test on Culex pipiens pallens (setting [2]), the pest or weed control at 3.5 ppm is no less than 95%.
For `COc1cc(CC(C#N)(C#N)CCC(F)(F)F)on1` [present compound (68)] the same measures were no less than 90%, 100% and no less than 95%.
For `C=CC(c1cc(C(C)(C)O)on1)C(C#N)(C#N)CCC(F)(F)F` (centres unmarked) [present compound (66)] the same measures were no less than 90%, 100% and no less than 95%.
For the molecule `N#CC(C#N)(CCC(F)(F)F)Cc1cc(C(F)(F)C(F)(F)F)on1` [present compound (38)], the pest or weed control at 500 ppm is no less than 90% in the test on Musca domestics (setting [1]) and 100% with Blattalla germanica. The pest or weed control at 3.5 ppm in the test on Culex pipiens pallens (setting [2]) was no less than 95%.
On to `CC(C)(C)c1cc(CC(C#N)(C#N)CCC(F)(F)F)[nH]n1` [present compound (1)], for which, in the test on Musca domestics (setting [1]), the pest or weed control at 500 ppm was no less than 90%. Also, in the test with Culex pipiens pallens (setting [2]), the pest or weed control at 3.5 ppm was no less than 95%.
On to `CC(C)(C)c1nc(CC(C#N)(C#N)CCC(F)(F)F)co1` [present compound (9)], for which the values for the pest or weed control at 500 ppm in the test with Musca domestics (setting [1]) and in the test on Blattalla germanica were no less than 90% and 100%, respectively. Besides, in the test on Culex pipiens pallens (setting [2]), the pest or weed control at 3.5 ppm was no less than 95%.
For `N#CC(C#N)(CCC(F)(F)F)Cc1cc(C(F)(F)F)on1` [present compound (35)] the same measures were no less than 90%, 100% and no less than 95%.
In the case of `N#CC(C#N)(CCC(F)(F)F)Cc1cc(C(F)(F)C(F)(F)C(F)(F)F)on1` [present compound (39)], in the test with Musca domestics (24 h), the pest or weed control at 500 ppm was no less than 90%. In the test on Culex pipiens pallens, the pest or weed control at 3.5 ppm is no less than 95%.
With `N#CC(C#N)(CCC(F)(F)F)Cc1cnn(Cc2ccccc2)c1` [present compound (8)], the pest or weed control at 500 ppm in the test on Musca domestics (setting [1]) is no less than 90%; in the test with Blattalla germanica it was 100%. Moreover, in the test on Culex pipiens pallens (setting [2]), the pest or weed control at 3.5 ppm is no less than 95%.
In the case of `CC[S+]([O-])c1ncc(CC(C#N)(C#N)CCC(F)(F)F)n1C` (centres unmarked) [present compound (70)], the pest or weed control at 3.5 ppm in the test on Culex pipiens pallens (setting [2]) was no less than 95%.
In the case of `CC(C)c1cc(C(C)C(C#N)(C#N)CCC(F)(F)F)no1` (centres unmarked) [present compound (41)], in the test on Blattalla germanica, the pest or weed control at 500 ppm came out at 100%.
For the molecule `CC(C)(F)c1cc(CC(C#N)(C#N)CCC(F)(F)F)no1` [present compound (54)], the pest or weed control at 500 ppm was no less than 90% in the test with Musca domestics (setting [1]) and 100% in the test with Blattalla germanica. In addition, the pest or weed control at 3.5 ppm in the test on Culex pipiens pallens (setting [2]) is no less than 95%.
Take `CCC(c1cc(C(F)(F)F)on1)C(C#N)(C#N)CCC(F)(F)F` (centres unmarked) [present compound (37)]: the pest or weed control at 500 ppm in the test on Musca domestics (setting [1]) is no less than 90%; in the test with Blattalla germanica it was 100%. Further, the pest or weed control at 3.5 ppm in the test on Culex pipiens pallens (setting [2]) is no less than 95%.
In the case of `N#CC(C#N)(CCC(F)(F)F)Cc1cnc(Cl)s1` [present compound (18)], the pest or weed control at 500 ppm is no less than 90% in the test on Musca domestics (setting [1]) and 100% in the test with Blattalla germanica. The pest or weed control at 3.5 ppm with Culex pipiens pallens (setting [2]) is no less than 95%.
For the molecule `C#CCOc1nc(CC(C#N)(C#N)CCC(F)(F)F)cs1` [present compound (14)], the pest or weed control at 500 ppm in the test on Musca domestics (setting [1]) was no less than 90%. In addition, the pest or weed control at 3.5 ppm in the test with Culex pipiens pallens (setting [2]) is no less than 95%.
With `CC(C)(C)n1cc(CC(C#N)(C#N)C2C=CCCC2)cn1` (centres unmarked) [present compound (33)], the pest or weed control at 3.5 ppm in the test on Culex pipiens pallens (setting [2]) was no less than 95%.
For `C#CCn1cc(CC(C#N)(C#N)CCC(F)(F)F)cn1` [present compound (31)], in the test on Musca domestics (setting [1]), the pest or weed control at 500 ppm is no less than 90%. In addition, the pest or weed control at 3.5 ppm in the test on Culex pipiens pallens (setting [2]) is no less than 95%.
For `C#CCOC(C)(C)c1cc(CC(C#N)(C#N)CCC(F)(F)F)no1` [present compound (67)] the same measures were no less than 90% and no less than 95%.
For the molecule `N#CC(C#N)(CCC(F)(F)F)Cc1cscn1` [present compound (10)], in the test with Musca domestics (setting [1]), the pest or weed control at 500 ppm is no less than 90%.
As for `CCC(c1cc(C(C)(C)O)on1)C(C#N)(C#N)CCC(F)(F)F` (centres unmarked) [present compound (64)], the pest or weed control at 3.5 ppm with Culex pipiens pallens (setting [2]) was no less than 95%. Also, in the test on Blattalla germanica, the pest or weed control at 500 ppm came out at 100%.
For `CC(c1cc(C(C)(C)O)on1)C(C#N)(C#N)CCC(F)(F)F` (centres unmarked) [present compound (62)] the same measures were no less than 95% and 100%.
Take `CC(C)(C)n1ncc(CC(C#N)(C#N)CCC(F)(F)F)c1-n1cccc1` [present compound (34)]: in the test on Musca domestics (setting [1]), the pest or weed control at 500 ppm is no less than 90%. For the same molecule, in the test on Culex pipiens pallens (setting [2]), the pest or weed control at 3.5 ppm was no less than 95%.
`CCc1nc(CC(C#N)(C#N)CCC(F)(F)F)no1` [present compound (23)]: in the test on Musca domestics (setting [1]), the pest or weed control at 500 ppm is no less than 90%. For the same molecule, in the test with Culex pipiens pallens (setting [2]), the pest or weed control at 3.5 ppm was no less than 95%.
For `CC(C)(C)c1nnc(CC(C#N)(C#N)CCC(F)(F)F)o1` [present compound (22)], the pest or weed control at 500 ppm in the test with Musca domestics (setting [1]) is no less than 90%. For the same molecule, the pest or weed control at 3.5 ppm in the test with Culex pipiens pallens (setting [2]) was no less than 95%.
In the case of `CC(O[Si](C)(C)C(C)(C)C)c1cc(CC(C#N)(C#N)CCC(F)(F)F)no1` (centres unmarked) [present compound (48)], the pest or weed control at 3.5 ppm in the test on Culex pipiens pallens is no less than 95%.
`CC(C)C(c1cc(C(C)(C)O)on1)C(C#N)(C#N)CCC(F)(F)F` (centres unmarked) [present compound (65)]: in the test with Culex pipiens pallens (setting [2]), the pest or weed control at 3.5 ppm was no less than 95%. This molecule displayed a pest or weed control at 500 ppm with Blattalla germanica of 100%.
In the case of `CC(C)(C)[Si](C)(C)OCc1cc(CC(C#N)(C#N)CCC(F)(F)F)no1` [present compound (43), [(5-(t-butyldimethylsilanyloxymethyl)isoxazol-3-yl)methyl](3,3,3-trifluoropropyl)malononitrile], the pest or weed control at 3.5 ppm with Culex pipiens pallens was no less than 95%.

The values above are taken from patent US7846956B2, “Malononitrile compound as pesticides” (Sumitomo Chemical Company, Limited, priority 2004, dated 2010).
